Columns and labels:
[1] = tested on: iNOS expression in BV-2 cells; experiment: iNOS protein expression (western blot) in LPS-stimulated BV-2 cells; format: cell-based, murine; conditions: 2 μg/mL LPS, 14 h
Text: It is well-established that reactive oxygen species (ROS) and nitric oxide (NO), produced during microglia activation, contribute to inflammatory response and cytotoxic damage to the surrounding neurons and neighbouring cells. Recent studies have shown that BV-2 microglial cell could serve as an in vitro model to mimic such neuroinflammatory states when stimulated with lipopolysaccharide (LPS)[49]. LPS activates BV-2 cells by triggering a cascade of inflammatory events which includes the production of NO. This event is characterized by the generation of the biomarker, inducible nitric oxide synthase (iNOS), as well as ROS. Chuang et al.[50] have also shown that cPLA2 is a major contributor in this pathway and inhibiting this enzyme reduces the production of the neurotoxic mediators and provide neuroprotective effects. Therefore to investigate the ability of 2i in inhibiting cPLA2 in a neuroinflammatory model, BV-2 cells were treated with LPS (2 μg/mL), incubated for different time points, collected and lysed for protein extraction. […] The cPLA2 level was also determined and found to be largely constant throughout the entire activation process with a slight drop at the 24 h timepoint (Fig. 3F). Next, 2i (1, 10 and 20 μM) were incubated together with LPS in the BV-2 cells for 14 h (Fig. 4A,B). […]

[2] = PAMPA with porcine brain lipids (BBB permeation); conditions: pig, pH 7.4
Experimental: Thus to explore whether 2i is able to penetrate into the brain, we used PAMPA with porcine brain lipids as the lipid barrier. […] A minimum Pe of […] × 10^−6 cm/s has been cited as the threshold for permeability across the blood brain barrier.
The Parallel Artificial Membrane Permeability Assay (PAMPA) was used to determine the effective permeability (Pe) of 2i. The method reported by Di et al.[53] was followed with modifications. Determinations were carried out on MultiScreen-IP PAMPA assay (donor) plates (MAIPNTR10) and MultiScreen Receiver Plates (MATRNPS50) from Millipore Corporation (USA) with porcine polar brain lipids (Avanti Polar Lipids Inc, Alabaster, AL) as the lipid barrier.
An aliquot (5 µL) of 2% porcine brain lipids in dodecane (ReagentPlus®, Sigma Aldrich, USA) was dispensed into the donor well. A stock solution (5 mM) of 2i prepared in DMSO was diluted with 1x phosphate buffer (PBS, pH 7.4) to give a 50 µM solution. An aliquot (300 µL) of the solution was dispensed into the donor well and an equal volume of buffer (1xPBS with 1% DMSO) was added to the corresponding acceptor well. The donor and acceptor plates were assembled, the unit was placed in a humidified box and gently agitated on a mini shaker at room temperature (25 °C) for 16 h. After this time, aliquots (200 µL) were withdrawn from the donor and acceptor wells, diluted separately to 1 mL with PBS, and quantified at λmax of 290 nm on a Shimadzu UV-1800 Spectrophotometer.
300 µL aliquots of stock solutions (500 µM, 1xPBS, 0.1% DMSO) were dispensed to donor wells as described earlier. Quantification was by UV at λmax of 272 nm (caffeine), 284 nm (carbamazepine), 330 nm (quinidine), 280 nm (dopamine) and 288 nm (propanolol). […] Pe was obtained from (3):3 Pe=−2.303×{VAVD/[(VA+VD)×A×t]}×log{1−[(VA+VD)/(VD.S)]×CA(t)/CD(0)} where VA and VD are the volumes of acceptor (cm^3) and donor (cm^3) wells respectively, A is the area of the surface area of the membrane (0.24 cm^2), t is the permeation time (s). The Pe of each compound was obtained from at least 3 separate experiments using 2 different stock solutions. For each independent determination, triplicates (3 wells) were run for each compound.

[3] = Aqueous solubility (Multiscreen Solubility filter plates); format: physicochemical; conditions: aqueous buffer, kinetic from dmso stock; pH 7.4, 24 h, 25 °C
Experimental: Solubility determinations were carried out on Multiscreen® Solubility filter plates (Millipore-MSSLBPC10) from Millipore Corporation (MA, USA) following the protocol (PC2445EN00) from the manufacturer.

In the case of `CCCCC/C=C\C/C=C\C/C=C\C/C=C\CCCCC(=O)Nc1cccc(C(=O)O)c1` [2i], the “reduction of LPS-induced iNOS expression” value ([1]; 20 µM) is reported as 50%, the “iNOS level, concentration dependence” value ([1]; 1–20 μM) is reported as “dose-dependent decrease in the iNOS level” and the Papp at 16 h, 50 µM [2] is reported as 12.3 ± 1.46 ×10⁻⁶ cm/s. For the same compound, the solubility at 24 h [3] was > 100 µM.

Source: PMC5651845, “A New Generation of Arachidonic Acid Analogues as Potential Neurological Agent Targeting Cytosolic Phospholipase A2” (Scientific Reports, 2017)
